A short description of the data set: RP, Thermo Scientific Acclaim RSLC 120 C18, 100 × 2.1 mm, 2.2 µm, 30 °C, 0.2 mL/min, estimated dead time 1.1 min; A: 90% water + 10% methanol + 0.01% formic acid + 5 mM ammonium formate, pH 3.61; B: methanol + 0.01% formic acid + 5 mM ammonium formate, pH 3.61; gradient (min/%B) 0/1 1/1 2/39 13/99.9 15/99.9 15.1/1 20.1/1. As to conditions: stereoisomer not certain.
Turning to `c1ccc(CN2CCNCC2)cc1` [Benzylpiperazine], the LC retention time was 4.23 min.

On to `COc1ccc(Oc2ccc(NC(=O)N(C)C)cc2)cc1` [Difenoxuron], for which the LC retention time is 8.43 min.

For `Oc1ccc(C=Cc2cc(O)cc(O)c2)cc1` [Resveratrol], the LC retention time was 5.93 min.

On to `CCOP(=S)(OCC)SC(CCl)N1C(=O)c2ccccc2C1=O` (stereo not drawn) [Dialifos], for which the LC retention time was 11.5 min.

As to `CSc1nnc(C(C)(C)C)c(=O)n1N` [Metribuzin], the LC retention time was 7.07 min.

Regarding `CNCCN1C(=O)C(OC(C)=O)C(c2ccc(OC)cc2)Sc2ccccc21` (stereo not drawn) [Diltiazem-Nor], the LC retention time was 7.21 min.

In the case of `CCOP(=S)(OCC)SCS(=O)C(C)(C)C` (stereo not drawn) [Terbufos-sulfoxide], the LC retention time was 9 min.

With `N#Cc1nn(-c2c(Cl)cc(C(F)(F)F)cc2Cl)c(N)c1C(F)(F)F` [Fipronil-desulfinyl], the LC retention time was 10.4 min.

With `O=C1CN(O)C(c2ccccc2)=c2cc(Cl)ccc2=N1` [Demoxepam], the LC retention time was 7.14 min.

As to `CNC(C)Cc1cccs1` (stereo not drawn) [Methiopropamine], the LC retention time was 3.69 min.

In the case of `NC1CC1c1ccccc1` (stereo not drawn) [Tranylcypromine], the LC retention time is 4.27 min.

As to `Cc1oc(C)c(C(=O)Nc2ccccc2)c1C` [Methfuroxam], the LC retention time was 8.79 min.

Regarding `O=C(NC(=O)c1c(F)cccc1F)Nc1ccc(C(F)(F)F)cc1` [Penfluron], the LC retention time was 10.9 min.

Regarding `COc1cc(N)c(Cl)cc1C(=O)NC1CCN(CCCOc2ccc(F)cc2)CC1OC` (stereo not drawn) [Cisapride], the LC retention time was 6.73 min.

For the compound `COc1ccc2c3c([nH]c2c1)C(C)=NCC3` [Harmaline], the LC retention time was 5.06 min.

For `O=C(Nc1ccc(Cl)cc1)Nc1ccc(Cl)c(Cl)c1` [Triclocarban], the LC retention time is 12 min.

Turning to `CCOC(=O)C(SP(=S)(OC)OC)c1ccccc1` (stereo not drawn) [Phenthoate], the LC retention time was 10.7 min.

As for `O=C(Oc1cccc2cccnc12)c1cn(CC2CCCCC2)c2ccccc12` [BB-22], the LC retention time is 12.4 min.

Take `CCN(CC)C(=O)N1CCN(C)CC1` [Carbamazine-Diethyl]: the LC retention time is 3.16 min.

As for `Nc1ccn(C2OC(CO)C(O)C2O)c(=O)n1` (stereo not drawn) [Cytarabin], the LC retention time is 1.39 min.

As for `C#CCOc1cc(-n2nc(C(C)(C)C)oc2=O)c(Cl)cc1Cl` [Oxadiargyl], the LC retention time was 11.2 min.

Turning to `CCCCCn1nc(C(=O)c2cccc3ccccc23)c2ccccc21` [THJ-018], the LC retention time was 13.1 min.

On to `Cc1c(N(C)CS(=O)(=O)O)c(=O)n(-c2ccccc2)n1C` [Dipyron (Metamizol)], for which the LC retention time was 4.49 min.

For `OC(c1ccccc1)(c1ccccc1)C1CCNCC1` [Azacyclonol], the LC retention time is 6.19 min.

On to `COC(=O)C1=CCCN(C)C1` [Arecoline], for which the LC retention time is 1.74 min.

On to `CCOC(=O)C(Cl)Cc1cc(-n2nc(C)n(C(F)F)c2=O)c(F)cc1Cl` (stereo not drawn) [Carfentrazone-ethyl], for which the LC retention time is 10.7 min.

Regarding `Cc1cccc(N(C)C(=S)Oc2ccc3ccccc3c2)c1` [Tolnaftate], the LC retention time was 12.2 min.

As to `CCOC(=O)C1=C(C)NC(C)=C(C(=O)OC)C1c1cccc(Cl)c1Cl` (stereo not drawn) [Felodipine], the LC retention time was 11 min.

As for `COc1ccc(CCN(C)CCCC(C#N)(c2ccc(OC)c(OC)c2)C(C)C)cc1OC` (stereo not drawn) [Verapamil], the LC retention time is 7.03 min.

As for `CNC(C)C(=O)c1ccc2c(c1)OCO2` (stereo not drawn) [Methylone (MDMC)], the LC retention time was 3.81 min.

On to `O=C(c1ccccc1)c1ccc2n1CCC2C(=O)O` (stereo not drawn) [Ketorolac], for which the LC retention time was 6.94 min.

In the case of `OCCN1CCN(CCCN2c3ccccc3Sc3ccc(Cl)cc32)CC1` [Perphenazine], the LC retention time was 9.55 min.

For `CCCCCn1cc(C(=O)Oc2cccc3cccnc23)c2ccccc21` [PB-22], the LC retention time is 11.9 min.

As for `CCC(c1ccccc1)c1c(O)c2ccccc2oc1=O` (stereo not drawn) [Phenprocoumon], the LC retention time is 9.05 min.

With `CCCc1nc(C)c2c(=O)[nH]c(-c3cc(S(=O)(=O)N4CCN(CC)CC4)ccc3OCC)nn12` [Vardenafil], the LC retention time is 8.11 min.

In the case of `COc1cc(OC)nc(NC(=O)NS(=O)(=O)c2ncccc2C(F)(F)F)n1` [Flazasulfuron], the LC retention time is 8.56 min.

In the case of `Cc1ccccc1C(OCCN(C)C)c1ccccc1` (stereo not drawn) [Orphenadrine], the LC retention time is 7.44 min.

Regarding `CC(C)C(Nc1ccc(C(F)(F)F)cc1Cl)C(=O)OC(C#N)c1cccc(Oc2ccccc2)c1` (stereo not drawn) [Fluvalinate (tau-)], the LC retention time is 13.5 min.

For `CN1CCN(CC(=O)N2c3ccccc3C(=O)Nc3cccnc32)CC1` [Pirenzepine], the LC retention time is 4.11 min.

As for `CCCCCn1cc(C(=O)c2cccc3ccccc23)cc1-c1cccc(F)c1` [JWH-368], the LC retention time was 13 min.

Regarding `CC12CCC(=O)C=C1CCC1C2C(O)CC2(C)C(C(=O)CO)CCC12` (stereo not drawn) [Corticosterone], the LC retention time was 8.74 min.

Turning to `CC(=O)Nc1ccc(OC(=O)c2ccccc2OC(C)=O)cc1` [Benorilate], the LC retention time is 7.41 min.

For the compound `Cc1ncc(CO)c(CO)c1O` [Pyridoxine], the LC retention time is 2.18 min.

On to `CCOC(=O)c1cn2nc(OP(=S)(OCC)OCC)cc2nc1C` [Pyrazophos], for which the LC retention time was 11.4 min.

As to `CC=CC(=O)N(CC)C(CC)C(=O)N(C)C` (stereo not drawn) [Crotethamide], the LC retention time was 6.13 min.

Turning to `CCCCCCCCCCCCN(C)C` [N,N-Dimethyldodecylamine], the LC retention time was 10.4 min.

With `CC(C)(C)c1ccc(CSc2cnn(C(C)(C)C)c(=O)c2Cl)cc1` [Pyridaben], the LC retention time was 13.4 min.

For the compound `COc1ccc(CCNCCCC(C#N)(c2ccc(OC)c(OC)c2)C(C)C)cc1OC` (stereo not drawn) [Verapamil-Nor], the LC retention time is 6.96 min.

As for `CC(C)(C)CC(C)(C)c1ccc(OCCOCC[N+](C)(C)Cc2ccccc2)cc1` [Benzethonium], the LC retention time is 11.6 min.

As for `CC(=O)CC(c1ccccc1)c1c(O)c2ccccc2oc1=O` (stereo not drawn) [Warfarin], the LC retention time is 9.35 min.

With `Nc1ccc(S(=O)(=O)Nc2ccccn2)cc1` [Sulfapyridine], the LC retention time is 3.8 min.

In the case of `Cc1cc(N(C)C)nc(Cl)n1` [Crimidine], the LC retention time is 6.2 min.

Consider `CC(C)C(C(=O)OC(C#N)c1cccc(Oc2ccccc2)c1)c1ccc(OC(F)F)cc1` (stereo not drawn) [Flucythrinate], for which the LC retention time was 12.7 min.

Take `NC(=O)C1(N2CCCCC2)CCN(CCCC(=O)c2ccc(F)cc2)CC1` [Pipamperone]: the LC retention time is 6.11 min.

Regarding `CC(=O)Oc1cc(C(C)C)c(OCCN(C)C)cc1C` [Moxisylyte], the LC retention time was 6.21 min.

As for `CCCCCn1cc(C(=O)c2ccc(Br)c3ccccc23)c2ccccc21` [JWH-387], the LC retention time was 13.4 min.

As to `C=CCOC(Cn1ccnc1)c1ccc(Cl)cc1Cl` (stereo not drawn) [Imazalil], the LC retention time was 9.09 min.

For `COc1ccc(C(C[N+](C)(C)[O-])C2(O)CCCCC2)cc1` (stereo not drawn) [Venlafaxine-N-oxide], the LC retention time is 6.94 min.

The values are drawn from the RepoRT retention time repository (doi:10.1021/acs.analchem.2c02893).
